{
  "source": "patent US10765625B2",
  "about": "“Knottin-drug conjugates and methods of using the same” (THE BOARD OF TRUSTEES OF THE LELAND STANFORD JUNIOR …, priority 2016, dated 2020)",
  "key": {"U87MG cells [1]": {"test_system": "U87MG cells", "assay": "Cell proliferation, CCK-8 colorimetric assay", "format": "cell-based", "method": "(§1) U87MG, and PANC-1 cells were grown in Dulbecco's Modified Eagle Medium (DMEM) with 10% fetal bovine serum (FBS) and 1% penicillin/streptomycin. MDA-MB-468 cells were grown in DMEM and Ham's F-12 medium (DMEM/F12) with 10% FBS and 1% penicillin/streptomycin. A2780 and BxPC3 cells were grown in Roswell Park Memorial Institute medium (RPMI) 1640+L-glutamine, with 10% FBS and 1% penicillin/streptomycin. D270 cells were grown in MEM (Richter's modification, no phenol red) with 10% FBS and 0.1% Gentamicin. Unless otherwise specified, cells were incubated at 37° C., 5% CO2. Flow cytometry was performed using an EMD Millpore Guava EasyCyte 8HT flow cytometer and the resulting data were evaluated using FlowJo software provided by TreeStar, Inc. Cell proliferation was measured using the Dojindo Cell Counting Kit-8 by replacing the media in each well with 100 μL of media containing 10% WST-8. After incubation for 1 h at 37° C., absorbance, A, at 450 nm was measured with a BioTek Synergy H4 microtiter plate reader. The background signal of CCK-8 alone was subtracted from all samples. Cell proliferation was then expressed as a percentage of absorbance relative to the control of untreated cells (Equation 2). Nonlinear regression analysis was performed using GraphPad Prism.\nNext, the potency of each KDC was tested in a cell-proliferation experiment. […] Cells were seeded in a 96-well plate at a density of 2,500 cells per well and grown overnight at 37° C., 5% CO2 in DMEM with 10% FBS and 1% penicillin/streptomycin. Cells were subsequently treated with 100 μL of fresh media, containing varying concentrations of drug, protein, or protein-drug conjugate and incubated for 4 d at 37° C., 5% CO2. Cell proliferation was measured according to the method described in Section 1.3. Error bars represent the standard deviation of experiments performed in triplicate. […] Given that the linker must be cleaved to release free Gemcitabine in order for the payload to become active, the low potency of 5b can be explained by the greater stability of the carbamate group as compared to the other linkers tested."}, "U87MG cells [2]": {"test_system": "U87MG cells", "assay": "Competition binding assay with AF488-labeled EETI-2.5F (AF488-1), flow cytometry", "details": "competition with 1 nM AF488-1, 4° C., 3 hours, read-out: IC50 (nM), binding affinity", "method": "Once the knottin-drug conjugates 5a-d were prepared, their binding affinity to U87MG glioblastoma cells, which are known to have elevated expression of tumor-associated integrins, was tested. […] To measure the relative binding affinities of knottins 1 and 2 and KDCs 5a-d, competition binding assays were performed using AlexaFluor 488-conjugated EETI-2.5F (AF488-1) as previously described (J. W. Kim, et al., J. Am. Chem. Soc. 2015, 137, 6-9). Cells (5×10^4 per sample) were detached with 0.05% Trypsin-EDTA, washed with IBB (25 mM Tris pH 7.4, 150 mM NaCl, 2 mM CaCl2, 1 mM MgCl2, 1 mM MnCl2, and 0.1% bovine serum albumin), and incubated with 1 nM AF488-1 and varying concentrations of competitors in 800 μL of IBB at 4° C. for 3 hours. The cells were washed twice with 800 μL of PBSA (phosphate buffered saline containing 0.1% bovine serum albumin) and the fluorescence of the surface-bound AF488-1 was determined using flow cytometry. The fluorescence was normalized to that of cells treated with AF488-1 alone to obtain the fraction bound. Half-maximal inhibitory concentration (IC50) values were determined by nonlinear regression analysis. Error bars represent the standard deviation of experiments performed in triplicate."}, "U87MG cells [3]": {"test_system": "U87MG cells", "assay": "Premature drug release study: cell proliferation (CCK-8) with hENT1 inhibitor 6 co-administered", "format": "cell-based", "details": "for Fold Increase in ED50 in U87MG Cells: ED50 with 6 / ED50 without 6, minus 1", "method": "as §1\nThe relative extent of premature drug-release in the cases of 5a, 5c, and 5d was next determined in order to identify the linker best-suited for delivering the drug payload intracellularly. An established technique for blocking the cellular uptake of Gemcitabine by using S (4-nitrobenzyl)-6-thioinosine (6) was employed, which is known to inhibit human equilibrative nucleoside transporters, such as hENT1. Because hENT1 is a critical regulator of the cellular internalization of Gemcitabine, it was reasoned that by inhibiting its activity with 6, the cytotoxic effect of any drug payload that was released in the extracellular environment could be diminished. It was anticipated that this would allow the distinction between KDCs that were potent due to the undesirable release of Gemcitabine outside of the cell from those that released Gemcitabine intracellularly (FIG. 6). The extent of premature drug release in the extracellular environment was studied by inhibiting activity of nucleoside transporters (such as hENT1) of U87MG cells through the use of the hENT1 inhibitor S-(4-nitrobenzyl)-6-thioinosine (6). […] In a similar fashion, it was expected that for KDCs which released a significant amount of the drug payload in the extracellular environment, an increase in the concentration of 6 should result in a concomitant increase in ED50 value.\nMedia used to prepare varying concentrations of drug, protein, or protein-drug conjugate also contained varying concentrations of the hENT1 inhibitor, 6. Additionally, prior to treatment, cell were incubated at 37° C., 5% CO2 with fresh media containing the varying concentrations of 6 for 2 h. Cell proliferation was measured using the Cell Counting Kit-8 by replacing the media in each well with 100 μL of media containing 10% WST-8. After incubation for 1 h at 37° C., absorbance at 450 nm was measured with a Synergy H4 microtiter plate reader. ED50 values were determined by nonlinear regression analysis. Example dose-response curves for 3 (FIG. 7) and 5d (FIG. 8) are provided. Cell proliferation was measured according to the method described in Section 1.3. Error bars represent the standard deviation of experiments performed in triplicate.\nThese values were normalized as Fold Increase in ED50 (defined in Equation 2) by dividing the ED50 of each drug when 6 was co-administered at concentration=C by the ED50 of that same drug when no 6 was added, then subtracting 1 (thus, a “0-fold increase” would mean no increase, while a “1-fold increase” would mean that the ED50 value had doubled). Fold Increase in ED50 for each drug at each concentration of 6 is provided in Table 5, and these values were used to generate FIG. 9."}},
  "note": "Like-named read-outs stand apart in the source and are kept apart here.",
  "data": [
    {"smiles": "CC(C)C[C@@H]1NC(=O)[C@@H]2CSSC[C@@H](C(=O)NCC(=O)O)NC(=O)[C@H](Cc3ccccc3)NC(=O)CNC(=O)[C@H](CC(N)=O)NC(=O)[C@@H]3CCCN3C(=O)CNC(=O)[C@@H]3CSSC[C@H](NC(=O)[C@H]([C@@H](C)O)NC(=O)[C@H](CC(C)C)NC(=O)[C@@H]4CCCN4C(=O)[C@@H]4CCCN4C(=O)[C@H](CC(N)=O)NC(=O)[C@H](CC(=O)O)NC(=O)CNC(=O)[C@H](CCCNC(=N)N)NC(=O)[C@@H]4CCCN4C(=O)[C@H](CCCNC(=N)N)NC(=O)[C@@H]4CCCN4C(=O)[C@@H](NC(=O)CN)CSSC[C@H](NC(=O)CNC(=O)[C@H](C)NC1=O)C(=O)N[C@@H](C(C)C)C(=O)N3)C(=O)N[C@@H](CCCn1cc(CCC(=O)N[C@H](C(=O)N[C@@H](C)C(=O)Nc3ccc(COC(=O)Nc4ccn([C@@H]5O[C@H](CO)[C@@H](O)C5(F)F)c(=O)n4)cc3)C(C)C)nn1)C(=O)N[C@@H](CCC(N)=O)C(=O)N[C@@H](CC(=O)O)C(=O)N[C@@H](CO)C(=O)N[C@@H](CC(=O)O)C(=O)N2", "note": "[5d]", "values": [
      {"measurement": "Potency / growth inhibition in U87MG cells (in words)", "setting": "U87MG cells [1]; U87MG cells, 4 d", "value": "low-nanomolar ED50 values"},
      {"measurement": "EC50", "setting": "U87MG cells [1]; U87MG cells, 4 d incubation, vs untreated control, read-out: ED50 (nM), potency", "value": "9 ± 1.8", "unit": "nM"},
      {"measurement": "EC50", "setting": "U87MG cells [1]; U87MG glioblastoma, 4 d after treatment, read-out: ED50 (nM), cell growth inhibition", "value": "9 ± 1.8", "unit": "nM"},
      {"measurement": "IC50", "setting": "U87MG cells [2]", "value": "1.5 ± 0.2", "unit": "nM"},
      {"measurement": "Effect of hENT1 inhibitor 6 on potency (ED50) (in words)", "setting": "U87MG cells [3]; U87MG cells, increasing concentrations of 6 up to 10 μM", "value": "no effect on the potency"},
      {"measurement": "Fold Increase in ED50 in U87MG Cells", "setting": "U87MG cells [3]; [6] = 0 nM", "value": 0},
      {"measurement": "Fold Increase in ED50 in U87MG Cells", "setting": "U87MG cells [3]; [6] = 1 nM", "value": "−0.3 ± 0.3"},
      {"measurement": "Fold Increase in ED50 in U87MG Cells", "setting": "U87MG cells [3]; [6] = 10 nM", "value": "−0.6 ± 0.6"},
      {"measurement": "Fold Increase in ED50 in U87MG Cells", "setting": "U87MG cells [3]; [6] = 100 nM", "value": "0.6 ± 1.0"},
      {"measurement": "Fold Increase in ED50 in U87MG Cells", "setting": "U87MG cells [3]; [6] = 1000 nM", "value": "1.2 ± 1.2"},
      {"measurement": "Fold Increase in ED50 in U87MG Cells", "setting": "U87MG cells [3]; [6] = 10000 nM", "value": "8.1 ± 5.4"}
    ]}
  ]
}
